What was measured:
Format in all cases: biochemical
[1] = tested on: Rhodococcus HPPD2; experiment: HPPD activity assay, in vitro characterization; conditions: normalized to Hordeum SEQ ID NO:2
Protocol: (§1) HPPD produces homogentisic acid and CO2 from 4-hydroxyphenylpyruvate (4-HPP) and O2. The activity assay for HPPD is based on the analysis of homogentisic acid by reversed phase HPLC.
(§2) The assay mixture can contain 150 mM potassium phosphate buffer pH 7.0, 50 mM L-ascorbic acid, 100 μM Catalase (Sigma-Aldrich), 1 μM FeSO4 and 0.2 units of purified HPPD enzyme in a total volume of 505 μl. 1 unit is defined as the amount of enzyme that is required to produce 1 nmol of HGA per minute at 20° C.
(§3) After a preincubation of 30 min the reaction is started by adding 4-HPP to a final concentration of 0.05 mM. The reaction is allowed to proceed for 45 min at room temperature. The reaction is stopped by the addition of 50 μl of 4.5 M phosphoric acid. The sample is filtered using a […] pore size PVDF filtration device.
(§4) 5 μl of the cleared sample is analyzed on an UPLC HSS T3 column (particle size 1.8 μm, dimensions 2,1×50 mm; Waters) by isocratic elution using 90% 20 mM NaH2PO4 pH 2.2, 10% methanol (v/v).
(§5) HGA is detected electrochemically at 750 mV (mode: DC; polarity: positive) and quantified by integrating peak areas (Empower software; Waters).
(§6) Inhibitors are dissolved in DMSO (dimethylsulfoxide) to a concentration of 0.5 mM. From this stock solution serial five-fold dilutions are prepared in DMSO, which are used in the assay. The respective inhibitor solution accounts for 1% of the assay volume. Thus, final inhibitor concentrations range from 5 μM to 320 μM, respectively. Activities are normalized by setting the uninhibited enzyme activity to 100%. IC50 values are calculated using non-linear regression.
(§7) Using methods which are described in the above examples or well known in the art, purified, recombinant wildtype HPPD enzymes are characterized with respect to their kinetic properties and sensitivity towards HPPD inhibiting herbicides. Apparent michaelis constants (Km) and maximal reaction velocities (Vmax) are calculated by non-linear regression with the software GraphPad Prism 5 (GraphPad Software, La Jolla, USA) using a substrate inhibition model. Apparent kcat values are calculated from Vmax assuming 100% purity of the enzyme preparation. Weighted means (by standard error) of Km and IC50 values are calculated from at least three independent experiments. The Cheng-Prusoff equation for competitive inhibition (Cheng, Y. C.; Prusoff, W. H. Biochem Pharmacol 1973, 22, 3099-3108) is used to calculate dissociation constants (Ki). • Field performance of the HPPD enzyme, which is used as a herbicide tolerance trait, may depend not only on its lack of sensitivity towards HPPD inhibiting herbicides but also on its activity. To assess the potential performance of a herbicide tolerance trait a tolerance index (TI) is calculated using the following formula: […]
(§8) The reference SEQ ID NO:2 was included as a comparative control in a representative number of experiments and the values given in Table 12 are the average values from a number of experiments. The TI values given for various HPPD enzymes from different organisms are normalized to the value of the reference SEQ ID NO:2.

[2] = tested on: Zea mays HPPD mutant Seq ID 67; experiment: HPPD activity assay, in vitro characterization; conditions: normalized to Hordeum SEQ ID NO:2
Protocol: as §1, §2, §3, §4, §5, §6, §7, §8

[3] = molecular target: T1, Hordeum HPPD variant L320N (Hordeum vulgare, UniProt O48604, A164G/L320N/R146V/R147D/R148G); experiment: HPPD activity assay, in vitro characterization of HPPD mutants; conditions: normalized to wild-type
T1 construct: His (N); made in house; host or cells: E. coli BL21 (DE3)
T1 sequence (O48604 whole entry R146V/R147D/R148G/A164G/L320N): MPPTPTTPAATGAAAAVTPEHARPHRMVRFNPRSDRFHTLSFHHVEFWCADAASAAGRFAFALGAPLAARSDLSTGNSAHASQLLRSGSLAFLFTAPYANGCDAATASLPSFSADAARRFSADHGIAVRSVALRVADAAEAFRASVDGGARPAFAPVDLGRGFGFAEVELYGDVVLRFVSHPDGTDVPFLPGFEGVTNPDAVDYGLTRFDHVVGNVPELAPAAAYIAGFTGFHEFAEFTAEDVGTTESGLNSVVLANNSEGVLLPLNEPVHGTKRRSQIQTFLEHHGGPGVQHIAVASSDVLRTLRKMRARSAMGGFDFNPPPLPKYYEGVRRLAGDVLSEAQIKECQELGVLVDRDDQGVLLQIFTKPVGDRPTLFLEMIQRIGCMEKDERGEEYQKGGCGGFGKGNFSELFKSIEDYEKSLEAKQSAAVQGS
Protocol: as §1, §2, §3, §4, §5
as §6, with “Thus, final inhibitor concentrations range from 5 μM to 320 μM, respectively.” left out
(§9) Purified, mutant HPPD enzymes are obtained by the methods described above. Dose response and kinetic measurements are carried out using the described HPPD activity assay. Apparent michaelis constants (Km) and maximal reaction velocities (Vmax) are calculated by non-linear regression with the software GraphPad Prism 5 (GraphPad Software, La Jolla, USA) using a substrate inhibition model. […] Weighted means (by standard error) of Km and IC50 values are calculated from at least three independent experiments.
(§10) Field performance of the optimized HPPD enzyme, which is used as a herbicide tolerance trait may depend not only on its lack of sensitivity towards HPPD inhibiting herbicides but also on its activity. To assess the potential performance of a herbicide tolerance trait a tolerance index (TI) is calculated using the following formula: […]

[4] = molecular target: T2, Hordeum HPPD variant L353M, P321R, L320Q (Hordeum vulgare, UniProt O48604, L320Q/L353M/P321R); experiment: as above; conditions: normalized to wild-type
T2 construct: His (N); made in house; host or cells: E. coli BL21 (DE3)
T2 sequence (O48604 whole entry R146V/R147D/R148G/A164G/L320Q/P321R/L353M): as the sequence (O48604 whole entry R146V/R147D/R148G/A164G/L320N) above, with N320Q, P321R, L353M counted along it
Protocol: as §1, §2, §3, §4, §5
as §6, with “Thus, final inhibitor concentrations range from 5 μM to 320 μM, respectively.” left out
as §9, §10

[5] = molecular target: T3, Arabidopsis HPPD variant F381I (Arabidopsis thaliana, UniProt P93836, F381I); experiment: as above; conditions: normalized to wildtype
T3 construct: His6 (N); made in house; host or cells: E. coli BL21 (DE3)
T3 sequence (P93836 whole entry F381I): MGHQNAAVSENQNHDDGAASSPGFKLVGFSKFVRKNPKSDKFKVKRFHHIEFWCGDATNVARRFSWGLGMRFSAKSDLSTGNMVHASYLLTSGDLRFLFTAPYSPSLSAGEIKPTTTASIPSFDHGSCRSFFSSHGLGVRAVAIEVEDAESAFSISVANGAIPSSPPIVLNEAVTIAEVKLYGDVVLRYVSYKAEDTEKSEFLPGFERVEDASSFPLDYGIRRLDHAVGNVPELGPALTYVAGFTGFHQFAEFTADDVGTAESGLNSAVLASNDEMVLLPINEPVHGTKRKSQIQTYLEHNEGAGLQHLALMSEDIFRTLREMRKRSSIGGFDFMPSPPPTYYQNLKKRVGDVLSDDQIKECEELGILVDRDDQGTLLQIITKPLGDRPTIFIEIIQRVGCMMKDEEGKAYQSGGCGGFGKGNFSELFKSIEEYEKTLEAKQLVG
Protocol: as §1, §2, §3, §4, §5
as §6, with “Thus, final inhibitor concentrations range from 5 μM to 320 μM, respectively.” left out
as §9, §10

| Structure (SMILES) | Normalized tolerance index (TI) [1] | Normalized tolerance index (TI) [2] | Normalized tolerance index (TI) [3] | Normalized tolerance index (TI) [4] | Normalized tolerance index (TI) [5] |
| --- | --- | --- | --- | --- | --- |
| Cn1nnnc1NC(=O)c1c(F)cc(Cl)c(S(C)(=O)=O)c1Cl [Inhibitor 1, 2,4-dichloro-6-fluoro-3-methylsulfonyl-N-(1-methyltetrazol-5-yl)benzamide] | 2.8 | 5 | 5.2 | 2.5 | – |
| CSc1c(Cl)cc(F)c(C(=O)Nc2ncnn2C)c1Cl [Inhibitor 3, 2,4-dichloro-6-fluoro-3-methylsulfanyl-N-(2-methyl-1,2,4-triazol-3-yl)benzamide] | 12.5 | 3.8 | – | – | 0.1 |

Reference: US11230717B2, “Plants having increased tolerance to herbicides” (BASF SE, priority 2013, dated 2022)
